Assay results as given in article PMC11148045, “Structural basis for recognition of 26RFa by the pyroglutamylated RFamide peptide receptor” (Cell Discovery, 2024).
No end group written: not given here.

Key:
Assay in all cases: 26RFa-induced calcium mobilization, receptor mutants
[1] = molecular target: T1, QRFPR mutants (Homo sapiens, UniProt Q96P65, Q211A); type: cell-based; settings: HEK293, QRFPR Q211^5.35A; HEK293, Fluo-4; mean ± S.E.M., n ≥ 3
T1 construct: expressed in transfected cells; host or cells: HEK293, transient transfection by electroporation
T1 sequence (Q96P65 whole entry Q211A): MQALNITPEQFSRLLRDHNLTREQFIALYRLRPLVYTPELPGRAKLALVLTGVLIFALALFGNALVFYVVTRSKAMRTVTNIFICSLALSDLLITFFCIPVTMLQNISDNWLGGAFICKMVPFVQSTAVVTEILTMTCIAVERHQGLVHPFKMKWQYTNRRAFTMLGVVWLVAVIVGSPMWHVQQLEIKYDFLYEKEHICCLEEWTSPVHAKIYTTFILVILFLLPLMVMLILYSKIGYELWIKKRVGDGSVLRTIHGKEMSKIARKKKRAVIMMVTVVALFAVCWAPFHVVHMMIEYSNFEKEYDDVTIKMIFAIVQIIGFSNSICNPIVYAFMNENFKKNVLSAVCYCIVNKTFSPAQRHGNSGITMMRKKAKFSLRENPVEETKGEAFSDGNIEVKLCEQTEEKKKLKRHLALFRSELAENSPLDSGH
Description: (§1) The gene encoding the WT QRFPR, PrPRR, KISS1R, NPFF1R, or NPFF2R was subcloned into the pcDNA3.0 vector with the addition of an N-terminal HA tag. All of the mutations used for functional studies were generated by QuickChange PCR and verified by DNA sequencing.
(§2) HEK293 cells were obtained from ATCC (Manassas, VA, USA) and cultured in DMEM supplemented with 10% (v/v) FBS, 100 mg/L penicillin, and 100 mg/L streptomycin in 5% CO2 at 37 °C. For transient transfection, ~2.5 × 10^6 cells were mixed with 2 µg plasmids in 200 µL transfection buffer, and electroporation was carried out with a Scientz-2C electroporation apparatus (Scientz Biotech, Ningbo, China). The experiments were carried out 24 h after transfection.
(§3) For QRFPR, PrRPR, and KISS1R, HEK293 cells transfected with WT receptor or its mutants were seeded at a density of 4 × 10^4 per well into 96-well culture plates and incubated for 24 h at 37 °C in 5% CO2. For NPFF1R and NPFF2R, plasmids were transfected into HEK293 cells stably expressing Gα16. On the next day, cells were incubated with 2 μmol/L Fluo-4 AM in HBSS supplemented with 5.6 mmol/L D-glucose and 250 μmol/L sulfinpyrazone at 37 °C for 45 min. After washing, cells were added with 50 μL HBSS and incubated at room temperature for 10 min, then 25 μL agonist buffer was dispensed into the well using a FlexStation III microplate reader (Molecular Devices), and intracellular calcium change was recorded at an excitation wavelength of 485 nm and an emission wavelength of 525 nm. EC50 and Emax values for each curve were calculated by Prism 8.0 software (GraphPad Software).

[2] = molecular target: T2, QRFPR mutants (Homo sapiens, UniProt Q96P65, Y214A); type: cell-based; settings: HEK293, QRFPR Y214^5.38A; HEK293, Fluo-4; mean ± S.E.M., n ≥ 3
T2 construct: expressed in transfected cells; host or cells: HEK293, transient transfection by electroporation
T2 sequence (Q96P65 whole entry Y214A): as the sequence (Q96P65 whole entry Q211A) above, with A211Q, Y214A counted along it
Description: as §1, §2, §3

[3] = molecular target: T3, QRFPR mutants (Homo sapiens, UniProt Q96P65, E297A); type: cell-based
T3 construct: expressed in transfected cells; host or cells: HEK293, transient transfection by electroporation
T3 sequence (Q96P65 whole entry E297A): as the sequence (Q96P65 whole entry Q211A) above, with A211Q, E297A counted along it
Description: as §1, §2, §3

[4] = tested on: QRFPR mutants; type: cell-based, human
Description: as §1, §2, §3

[5] = molecular target: T4, QRFPR mutants (Homo sapiens, UniProt Q96P65, F289A); type: cell-based
T4 construct: expressed in transfected cells; host or cells: HEK293, transient transfection by electroporation
T4 sequence (Q96P65 whole entry F289A): as the sequence (Q96P65 whole entry Q211A) above, with A211Q, F289A counted along it
Description: as §1, §2, §3

[6] = molecular target: T5, QRFPR mutants (Homo sapiens, UniProt Q96P65, F289L); type: cell-based
T5 construct: expressed in transfected cells; host or cells: HEK293, transient transfection by electroporation
T5 sequence (Q96P65 whole entry F289L): as the sequence (Q96P65 whole entry Q211A) above, with A211Q, F289L counted along it
Description: as §1, §2, §3

[7] = molecular target: T6, QRFPR mutants (Homo sapiens, UniProt Q96P65, H293A); type: cell-based; settings: HEK293, QRFPR H293^6.55A; HEK293, Fluo-4; mean ± S.E.M., n ≥ 3
T6 construct: expressed in transfected cells; host or cells: HEK293, transient transfection by electroporation
T6 sequence (Q96P65 whole entry H293A): as the sequence (Q96P65 whole entry Q211A) above, with A211Q, H293A counted along it
Description: as §1, §2, §3

[8] = molecular target: T7, QRFPR mutants (Homo sapiens, UniProt Q96P65, F192A); type: cell-based; settings: HEK293, QRFPR F192^ECL2A; HEK293, Fluo-4; mean ± S.E.M., n ≥ 3
T7 construct: expressed in transfected cells; host or cells: HEK293, transient transfection by electroporation
T7 sequence (Q96P65 whole entry F192A): as the sequence (Q96P65 whole entry Q211A) above, with F192A, A211Q counted along it
Description: as §1, §2, §3

[9] = molecular target: T8, QRFPR mutants (Homo sapiens, UniProt Q96P65, I117A); type: cell-based; settings: HEK293, QRFPR I117^3.24A; HEK293, Fluo-4; mean ± S.E.M., n ≥ 3
T8 construct: expressed in transfected cells; host or cells: HEK293, transient transfection by electroporation
T8 sequence (Q96P65 whole entry I117A): as the sequence (Q96P65 whole entry Q211A) above, with I117A, A211Q counted along it
Description: as §1, §2, §3

[10] = molecular target: T9, QRFPR mutants (Homo sapiens, UniProt Q96P65, S126A); type: cell-based; settings: HEK293, QRFPR S126^3.33A; HEK293, Fluo-4; mean ± S.E.M., n ≥ 3
T9 construct: expressed in transfected cells; host or cells: HEK293, transient transfection by electroporation
T9 sequence (Q96P65 whole entry S126A): as the sequence (Q96P65 whole entry Q211A) above, with S126A, A211Q counted along it
Description: as §1, §2, §3

[11] = molecular target: T10, QRFPR mutants (Homo sapiens, UniProt Q96P65, H290A); type: cell-based; settings: HEK293, QRFPR H290^6.52A; HEK293, Fluo-4; mean ± S.E.M., n ≥ 3
T10 construct: expressed in transfected cells; host or cells: HEK293, transient transfection by electroporation
T10 sequence (Q96P65 whole entry H290A): as the sequence (Q96P65 whole entry Q211A) above, with A211Q, H290A counted along it
Description: as §1, §2, §3

[12] = molecular target: T11, QRFPR mutants (Homo sapiens, UniProt Q96P65, I218A); type: cell-based; settings: HEK293, QRFPR I218^5.42A; HEK293, Fluo-4; mean ± S.E.M., n ≥ 3
T11 construct: expressed in transfected cells; host or cells: HEK293, transient transfection by electroporation
T11 sequence (Q96P65 whole entry I218A): as the sequence (Q96P65 whole entry Q211A) above, with A211Q, I218A counted along it
Description: as §1, §2, §3

[13] = molecular target: T12, QRFPR mutants (Homo sapiens, UniProt Q96P65, T102A); type: cell-based; settings: HEK293, QRFPR T102^2.60A; HEK293, Fluo-4; mean ± S.E.M., n ≥ 3
T12 construct: expressed in transfected cells; host or cells: HEK293, transient transfection by electroporation
T12 sequence (Q96P65 whole entry T102A): as the sequence (Q96P65 whole entry Q211A) above, with T102A, A211Q counted along it
Description: as §1, §2, §3

[14] = molecular target: T13, QRFPR mutants (Homo sapiens, UniProt Q96P65, Q105A); type: cell-based; settings: HEK293, QRFPR Q105^2.63A; HEK293, Fluo-4; mean ± S.E.M., n ≥ 3
T13 construct: expressed in transfected cells; host or cells: HEK293, transient transfection by electroporation
T13 sequence (Q96P65 whole entry Q105A): as the sequence (Q96P65 whole entry Q211A) above, with Q105A, A211Q counted along it
Description: as §1, §2, §3

[15] = molecular target: T14, QRFPR mutants (Homo sapiens, UniProt Q96P65); type: cell-based
T14 construct: expressed in transfected cells; host or cells: HEK293, transient transfection by electroporation
T14 sequence (Q96P65 39-431, change not shown): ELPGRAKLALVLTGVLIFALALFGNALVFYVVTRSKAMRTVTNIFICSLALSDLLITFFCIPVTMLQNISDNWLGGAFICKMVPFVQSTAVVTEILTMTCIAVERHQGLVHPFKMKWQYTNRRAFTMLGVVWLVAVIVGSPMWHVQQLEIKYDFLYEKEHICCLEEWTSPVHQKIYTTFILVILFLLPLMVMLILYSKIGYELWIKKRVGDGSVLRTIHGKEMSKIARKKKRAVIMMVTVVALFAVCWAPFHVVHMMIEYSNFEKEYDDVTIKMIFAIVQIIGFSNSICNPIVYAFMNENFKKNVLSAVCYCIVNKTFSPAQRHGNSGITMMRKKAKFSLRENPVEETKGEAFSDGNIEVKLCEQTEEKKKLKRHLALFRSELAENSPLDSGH
Description: as §1, §2, §3

[16] = molecular target: T15, QRFPR mutants (Homo sapiens, UniProt Q96P65, F322A); type: cell-based; settings: HEK293, QRFPR F322^7.43A; HEK293, Fluo-4; mean ± S.E.M., n ≥ 3
T15 construct: expressed in transfected cells; host or cells: HEK293, transient transfection by electroporation
T15 sequence (Q96P65 whole entry F322A): as the sequence (Q96P65 whole entry Q211A) above, with A211Q, F322A counted along it
Description: as §1, §2, §3

[17] = molecular target: T16, QRFPR mutants (Homo sapiens, UniProt Q96P65, C118A); type: cell-based; settings: HEK293, QRFPR C118^3.25A; HEK293, Fluo-4; mean ± S.E.M., n ≥ 3
T16 construct: expressed in transfected cells; host or cells: HEK293, transient transfection by electroporation
T16 sequence (Q96P65 whole entry C118A): as the sequence (Q96P65 whole entry Q211A) above, with C118A, A211Q counted along it
Description: as §1, §2, §3

[18] = molecular target: T17, QRFPR mutants (Homo sapiens, UniProt Q96P65, M180A); type: cell-based; settings: HEK293, QRFPR M180^4.60A; HEK293, Fluo-4; mean ± S.E.M., n ≥ 3
T17 construct: expressed in transfected cells; host or cells: HEK293, transient transfection by electroporation
T17 sequence (Q96P65 whole entry M180A): as the sequence (Q96P65 whole entry Q211A) above, with M180A, A211Q counted along it
Description: as §1, §2, §3

Substance: ASGPLGTLAEELSSYSRRKGGFSFRF-NH2 [26RFa]
- Emax [1]: 94.9 ± 1.6%
- Emax [2]: 1.42 ± 0.7%
- Emax ([3]; HEK293, QRFPR E297^6.59A, HEK293, Fluo-4, mean ± S.E.M., n ≥ 3): 107 ± 0.8%
- effect of mutation on 26RFa activity ([3]; QRFPR 6.59 to alanine (printed D^6.59)): almost did not affect 26RFa activity
- role of Q^3.32 and Q/H^7.39 in activity ([4]; 26RFa, QRFPR): critical for the activity
- effect of mutation on QRFPR activation ([4]; alanine substitution of W111^23.50 and two conserved cysteines (C118^3.25, C201^45.50)): notably hampered QRFPR activation
- role of residues in 26RFa-induced receptor activation ([4]; residues around Arg25-Phe26-amide except I218^5.42 (E203, Q318, Y214, V129, F289, Q125, C98, F322)): essential for 26RFa-induced receptor activation
- Emax ([5]; HEK293, QRFPR F289^6.51A, HEK293, Fluo-4, mean ± S.E.M., n ≥ 3): 54.4 ± 1.4%
- effect of mutation on 26RFa activity ([5]; QRFPR F289^6.51 to alanine): dramatic decrease in the activity of 26RFa
- Emax ([6]; HEK293, QRFPR F289^6.51L, HEK293, Fluo-4, mean ± S.E.M., n ≥ 3): 112 ± 5.1%
- effect of mutation on 26RFa activity ([6]; QRFPR F289^6.51 to leucine): did not impact the 26RFa activity
- Emax [7]: 95.5 ± 1.6%
- Emax [8]: 87.4 ± 0.93%
- Emax [9]: 75.1 ± 3.1%
- Emax [10]: 92.3 ± 4.1%
- Emax [11]: 60.4 ± 0.39%
- Emax [12]: 77.8 ± 0.31%
- Emax [13]: 94 ± 1.4%
- Emax [14]: 83.8 ± 3.1%
- Emax ([15]; HEK293, QRFPR Δ1-38, HEK293, Fluo-4, mean ± S.E.M., n ≥ 3): 14.7 ± 1.5%
- peptide-induced QRFPR activity ([15]; QRFPR Δ1–38 (entire N-terminus truncated)): abolished the peptide-induced QRFPR activity
- Emax [16]: 11.1 ± 0.26%
- Emax [17]: 1.43 ± 0.55%
- Emax [18]: 93.3 ± 1%
